# Measurements from ChEMBL document CHEMBL1201862, “PubChem BioAssay data set” (2004).
#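 Five compound concentrations were applied to cells in 96-well plates for 48 hours; endpoints were derived by simple linear interpolation of the resulting dose-response curve. GI50: concentration for 50% inhibition of growth.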 Active and inactive are the calls of the source. Cut-off read from the data, not from the text of the source: active = GI50 up to about 1.1 µM and inactive = higher.
# Legend:
# Assay in all cases: NCI tumour cell line growth inhibition, 48 h
# ACHN = tested on: ACHN
# CCRF-CEM = tested on: CCRF-CEM
# COLO 205 = tested on: COLO 205
# IGROV-1 = tested on: IGROV-1
# KM12 = tested on: KM12
# MDA-MB-231 = tested on: MDA-MB-231
# MDA-MB-435 = tested on: MDA-MB-435
# Malme-3M = tested on: Malme-3M
# NCI-H23 = tested on: NCI-H23
# NCI-H460 = tested on: NCI-H460
# OVCAR-8 = tested on: OVCAR-8
# RPMI-8226 = tested on: RPMI-8226
# RXF 393 = tested on: RXF 393
# SF-268 = tested on: SF-268
# SNB-19 = tested on: SNB-19
# SR = tested on: SR
# SW-620 = tested on: SW-620
# TK-10 = tested on: TK-10
# UACC-257 = tested on: UACC-257
# SF-295 = tested on: SF-295
SMILES,GI50 (ACHN),GI50 (CCRF-CEM),GI50 (COLO 205),GI50 (IGROV-1),GI50 (KM12),GI50 (MDA-MB-231),GI50 (MDA-MB-435),GI50 (Malme-3M),GI50 (NCI-H23),GI50 (NCI-H460),GI50 (OVCAR-8),GI50 (RPMI-8226),GI50 (RXF 393),GI50 (SF-268),GI50 (SNB-19),GI50 (SR),GI50 (SW-620),GI50 (TK-10),GI50 (UACC-257),GI50 (SF-295)
Cc1cn([C@@H]2C[C@@H]2CO)c(=O)[nH]c1=O,> 100 µM (inactive),> 100 µM (inactive),> 100 µM (inactive),> 100 µM (inactive),> 100 µM (inactive),> 100 µM (inactive),> 100 µM (inactive),> 100 µM (inactive),> 100 µM (inactive),> 100 µM (inactive),> 100 µM (inactive),> 100 µM (inactive),> 100 µM (inactive),> 100 µM (inactive),> 100 µM (inactive),> 100 µM (inactive),> 100 µM (inactive),> 100 µM (inactive),> 100 µM (inactive),–
Cc1cc2c(=Cc3ccc(N(C)C)cc3)c3ccccc3n2[n+]1C,2.23 µM (inactive),0.944 µM (active),0.164 µM (active),1.52 µM (inactive),0.385 µM (active),0.847 µM (active),0.424 µM (active),1.08 µM (active),0.497 µM (active),0.393 µM (active),0.313 µM (active),0.107 µM (active),2.09 µM (inactive),0.537 µM (active),0.415 µM (active),0.0865 µM (active),1.21 µM (inactive),1.3 µM (inactive),0.207 µM (active),1.05 µM (active)
CC(O)C1(CNc2cc(Cl)nc(N)n2)CCC1 (stereo not drawn),> 100 µM (inactive),> 100 µM (inactive),–,> 100 µM (inactive),> 100 µM (inactive),> 100 µM (inactive),> 100 µM (inactive),> 100 µM (inactive),> 100 µM (inactive),> 100 µM (inactive),> 100 µM (inactive),> 100 µM (inactive),24.2 µM (inactive),–,> 100 µM (inactive),> 100 µM (inactive),> 100 µM (inactive),> 100 µM (inactive),37.8 µM (inactive),> 100 µM (inactive)
C=C1C(=O)O[C@@H]2C[C@@]3(C)CCC[C@H](C)C3=C[C@H]12 [HELENINE],10 µM (inactive),1.52 µM (inactive),1.73 µM (inactive),16.1 µM (inactive),12 µM (inactive),14.2 µM (inactive),5.08 µM (inactive),3.95 µM (inactive),4.94 µM (inactive),17 µM (inactive),6.19 µM (inactive),1.76 µM (inactive),6.12 µM (inactive),12.6 µM (inactive),16.5 µM (inactive),1.19 µM (inactive),3.83 µM (inactive),2.77 µM (inactive),7.21 µM (inactive),17.5 µM (inactive)
O=c1cnn(C2OC(C(O)CO)C(O)C2O)c(=O)[nH]1 (stereo not drawn),> 100 µM (inactive),> 100 µM (inactive),> 100 µM (inactive),> 100 µM (inactive),> 100 µM (inactive),> 100 µM (inactive),> 100 µM (inactive),> 100 µM (inactive),> 100 µM (inactive),> 100 µM (inactive),> 100 µM (inactive),> 100 µM (inactive),> 100 µM (inactive),> 100 µM (inactive),> 100 µM (inactive),> 100 µM (inactive),> 100 µM (inactive),> 100 µM (inactive),> 100 µM (inactive),–
COc1ccc2c(c1)C1=NCCN(CCN(C)C)c3ccc([N+](=O)[O-])c(c31)N2,0.191 µM (active),0.258 µM (active),–,0.708 µM (active),0.374 µM (active),0.196 µM (active),0.627 µM (active),0.431 µM (active),0.701 µM (active),0.354 µM (active),0.526 µM (active),0.442 µM (active),0.757 µM (active),0.509 µM (active),0.492 µM (active),0.404 µM (active),0.252 µM (active),1.1 µM (active),1.38 µM (inactive),0.35 µM (active)
O=S(=O)(/N=c1/[nH]c2ccccc2n1S(=O)(=O)c1ccccc1)c1ccccc1,26.5 µM (inactive),31.3 µM (inactive),53.5 µM (inactive),48 µM (inactive),33.1 µM (inactive),> 100 µM (inactive),36.8 µM (inactive),37.2 µM (inactive),41.6 µM (inactive),–,55 µM (inactive),35.4 µM (inactive),56.8 µM (inactive),42.4 µM (inactive),32.7 µM (inactive),> 10 µM (inactive),30.4 µM (inactive),47.5 µM (inactive),45 µM (inactive),41.1 µM (inactive)
CCOc1ccc2nc(NC(NC(=O)c3cccnc3)(C(F)(F)F)C(F)(F)F)sc2c1,29.3 µM (inactive),17.1 µM (inactive),34.1 µM (inactive),–,29.3 µM (inactive),66.1 µM (inactive),22.2 µM (inactive),51.1 µM (inactive),22.8 µM (inactive),28.6 µM (inactive),26.7 µM (inactive),–,21 µM (inactive),56.8 µM (inactive),51.9 µM (inactive),24.9 µM (inactive),46.1 µM (inactive),33.9 µM (inactive),25.5 µM (inactive),42 µM (inactive)
CN(C)CCn1c(=O)c2ccc3c4c(nn3CCN(C)C)c3ccccc3n(c1=O)c24,< 0.129 µM (active),0.178 µM (active),0.201 µM (active),–,0.205 µM (active),0.637 µM (active),0.23 µM (active),0.887 µM (active),0.449 µM (active),< 0.122 µM (active),< 0.01 µM (active),–,0.275 µM (active),0.211 µM (active),0.313 µM (active),< 0.127 µM (active),< 0.138 µM (active),0.578 µM (active),1.12 µM (inactive),0.0292 µM (active)
COc1ccc(C2Oc3c(cccc3OC)C=C2[N+](=O)[O-])cc1OC (stereo not drawn),10.4 µM (inactive),1.58 µM (inactive),13.7 µM (inactive),11.9 µM (inactive),9.98 µM (inactive),9.91 µM (inactive),2.16 µM (inactive),7.59 µM (inactive),4.41 µM (inactive),21.5 µM (inactive),8.93 µM (inactive),32.3 µM (inactive),2.57 µM (inactive),15.9 µM (inactive),17.3 µM (inactive),2.59 µM (inactive),–,23.8 µM (inactive),3.71 µM (inactive),20.6 µM (inactive)
Cc1cc2c(cc1C)OC(=O)CC2,> 100 µM (inactive),> 100 µM (inactive),> 100 µM (inactive),> 100 µM (inactive),> 100 µM (inactive),> 100 µM (inactive),> 100 µM (inactive),> 100 µM (inactive),> 100 µM (inactive),> 100 µM (inactive),> 100 µM (inactive),> 100 µM (inactive),> 100 µM (inactive),> 100 µM (inactive),–,> 100 µM (inactive),> 100 µM (inactive),> 100 µM (inactive),> 100 µM (inactive),> 100 µM (inactive)
